Results published in patent publication US20250114346A1, “COMBINATION THERAPY USING A KRAS G12D INHIBITOR AND PD-1 INHIBITOR OR PD-L1 INHIBITOR” (Incyte Corporation, priority 2023, published 2025).
Several values for one entry are separate records, joined by “and”; a condition that tells them apart may be missing. Identical values can stand only once. Counter-ions that a name gives are not always drawn.

What was measured:
CT-26 Clone 299 cells = test: CT-26 Clone 299 syngeneic efficacy model; assay type: in vivo, BALB/c-hPD1/hPDL1 mice; conditions: for monotherapy-treated mice succumbed to tumor growth: after treatment cessation, by day 43, Compound 1 at 100 mg/kg
Description: BALB/c-hPD1/hPDL1 mice (GemPharmatech, strain #T004025) express human PDCD1 and CD274 (which encode the PD-1 and PD-L1 proteins, respectively) from the respective murine loci for those genes.
For survival (Kaplan-Meier) analysis: in the Compound 1 study, events were recorded when tumor volumes reached 1700 mm^3 or mice met criteria for humane endpoint (e.g. body weight loss, tumor ulceration, overall condition); in the Compound 3 study, events were recorded when tumor volumes reached 2000 mm^3, when mice met criteria for humane endpoint, or upon confirmed recurrence following a complete response (confirmed recurrence defined as a growing tumor […] following a complete response as defined above).

[1] = test system: pERK (Phospho/Total ERK1/2) in CT-26 Clone 299 tumors; test: CT-26 Clone 299 pharmacodynamic model (pERK/total ERK in tumor lysates, MesoScale); assay type: in vivo, BALB/c-hPD1/hPDL1 mice
Description: Female BALB/c-hPD1/hPDL1 mice (GemPharmatech, aged 8-10 weeks) were inoculated subcutaneously with 1.0×10^6 CT-26 Clone 299 cells suspended in phosphate buffered saline.
Oral dose administration was continuous for 5 days and 2 doses of Retifanlimab was given. On day 5, plasma and tumor samples were collected 4 hour post oral dose and 24 hours post IP dose following CO2 asphyxiation. Blood was collected into ethylenediaminetetraacetic acid (450480 Greiner Bio-One) tubes. The plasma was analyzed for drug levels. Two tumor fragments per individual were collected and weighed into Omni Bead Ruptor tubes (19-628 Omni International) and flash frozen. One tumor piece was lysed at a 1:5 ratio with homogenization solution (water:acetonitrile:formic acid, 95:5:0.1, v:v:v) for drug concentration analysis. The second tumor piece was then lysed at a 1:5 ratio with lysis buffer (64KL1 FD, Cisbio) with added protease inhibitors (A32957 and A32965, Thermo Fisher) and Blocking Reagent (64KB1AAC, Cisbio) on a Bead Ruptor Elite homogenizer (19-042E, Omni International, Kennesaw, GA). Tumor lysates were spun at 10,000 revolutions per minute for 10 minutes at 4° C. The protein concentration was determined using the Pierce™ BCA Protein Assay method according to the manufacturer's protocol (23227 Thermo Fisher Scientific). The lysates were diluted with additional lysis buffer to a final concentration of 0.4 μg/μL. Samples were analyzed using the MesoScale Discovery Platform on the Phospho/Total ERK1/2 Whole Cell Lysate Kit (K15107D, MesoScale Discovery, Rockville, MD). The pERK levels were first normalized to total ERK for each sample and then to the average pERK/tERK ratio of the vehicle control group.

Molecule: retifanlimab: humanized IgG4 monoclonal antibody that binds to human PD-1 [reference compound]
- monotherapy-treated mice succumbed to tumor growth (CT-26 Clone 299 cells): 90%
- TGI (tumor growth inhibition) (CT-26 Clone 299 cells; retifanlimab 10 mg/kg BIW IP monotherapy, day 25, Compound 1 study): 52%
- TGI (tumor growth inhibition) (CT-26 Clone 299 cells; retifanlimab 10 mg/kg BIW monotherapy, day 34, Compound 3 study (p=0.0263)): 74%
- pERK inhibition ([1]; retifanlimab 10 mg/kg BIW, 24 hours post second dose): 18%

Molecule: COC(=O)N1[C@@H]2C[C@@H]([C@@H](OC(F)F)C2)[C@@H]1c1cc2c(C)nc3c(F)c(-c4cccc(Cl)c4Cl)c(CCC#N)cc3c2n1[C@H]1[C@H]2CN[C@@H]1C2 (atropisomer, axis not shown; (Ra)) [Compound 3, Methyl (1R,3R,4R,5S)-3-((Ra)-1-((1R,4R,5S)-2-azabicyclo[2.1.1]hexan-5-yl)-8-(2-cyanoethyl)-7-(2,3-dichlorophenyl)-6-fluoro-4-methyl-1H-pyrrolo[3,2-c]quinolin-2-yl)-5-(difluoromethoxy)-2-azabicyclo[2.2.1]heptane-2-carboxylate]
- TGI (tumor growth inhibition) (CT-26 Clone 299 cells; Compound 3 10 mg/kg BID PO monotherapy, day 34, vs vehicle (p=0.1127)): 47%
- TGI (tumor growth inhibition) (CT-26 Clone 299 cells; Compound 3 30 mg/kg BID PO monotherapy, day 34, vs vehicle (p=0.0411)): 92%

Molecule: Cc1nc2c(F)c(-c3cccc(Cl)c3Cl)c(CCC#N)cc2c2c1cc([C@H]1C[C@H]3C[C@H]3N1C(=O)C1CC1)n2[C@H]1[C@H]2CN[C@@H]1C2 (atropisomer, axis not shown; (Ra)) [Compound 1, 3-((Ra)-1-((1R,4R,5S)-2-azabicyclo[2.1.1]hexan-5-yl)-2-((1R,3R,5R)-2-(cyclopropanecarbonyl)-2-azabicyclo[3.1.0]hexan-3-yl)-7-(2,3-dichlorophenyl)-6-fluoro-4-methyl-1H-pyrrolo[3,2-c]quinolin-8-yl)propanenitrile monohydrochloride dihydrate]
- pERK/ERK Inhibition Relative to Vehicle Control (%, Mean) ([1]; 100 mg/kg Cmpd 1 QD, 4 Hr, monohydrochloride dihydrate): 84% and 56% and 85% and 89%

Molecule: Cc1c(Nc2nc(C(F)F)nc3cc(CN4CC[C@@H](O)C4)cnc23)cccc1-c1cccc(-c2nc3cc(CN4CCC(C(=O)O)CC4)cc(C#N)c3o2)c1C [Compound 2, (R)-1-((7-Cyano-2-(3′-(2-(difluoromethyl)-7-((3-hydroxypyrrolidin-1-yl)methyl)pyrido[3,2-d]pyrimidin-4-ylamino)-2,2′-dimethylbiphenyl-3-yl)benzo[d]oxazol-5-yl)methyl)piperidine-4-carboxylic acid]
- TGI (tumor growth inhibition) (CT-26 Clone 299 cells; Compound 2 25 mg/kg BID PO monotherapy, day 25): 17%
- tumor growth (CT-26 Clone 299 cells; Compound 2 25 mg/kg BID monotherapy, Compound 3 study): did not meaningfully alter tumor growth
- monotherapy-treated mice succumbed to tumor growth (CT-26 Clone 299 cells): 100%
- inhibition at 25 mg/kg ([1]; Mus musculus, CT26, Compound 2 25 mg/kg BID, 5 days, 4-hour post dose): 10%
